Experimental data reported in patent publication US11963997B2, “Anti-tumor polypeptide Bax-BH3, fluorescent polymeric nanomicelle, preparation method and use thereof” (Jilin University, priority 2021, dated 2024).
Residues, ends and D or L forms follow the SMILES beside them. No end group written: not given here. *: point of attachment. Cbz = O=C(OCc1ccccc1)*; CH2F = FC*

Experiments:
[1] = system: HEK-293T cells; assay: Fluorescence microscopy of HEK-293T cells after transfection (Hoechst 33342 nuclear staining); format: cell-based; settings: 1 μg plasmid per well, 4 h transfection then 12 h culture, Z-VAD-FMK 20 μM added 2 h before transfection
Protocol: (§1) The cultured HEK-293T cells (purchased from ATCC) were digested and counted with a hemocytometer, the resulting cells were diluted with a medium containing 10% fetal bovine serum (FBS) by volume, and added to a six-well plate, with 2×10^5 cells per well. The six-well plate was incubated in a 5% CO2 incubator at 37° C. until the cells grew to 50% to 70% confluence for transfection. […]
(§2) During the transfection, a mass-to-volume ratio (m:v) of the plasmid and the transfection reagent was 1:2, and 1 μg of the plasmid was added to each well of the six-well plate, and 2 μl of the transfection reagent was added correspondingly; the plasmid and transfection reagent were diluted with a serum-free medium in advance, shaken well, and allowed to stand at 25° C. for 5 min separately; the transfection reagent was pipetted to the serum-free medium containing the plasmid, flicked to mix well, and allowed to stand at 25° C. for 20 min to obtain a complex. […] Z-VAD-FMK (Selleck) was added to the six-well plate at a concentration of 20 μM 2 h before the transfection, nuclei were colored with a Hoechst 33342 dye, and condition of the cells after transfection was observed under a fluorescence microscope.

[2] = system: HEK-293T cells; assay: Annexin V-FITC flow cytometry-based apoptosis assay of transfected cells; format: cell-based
Protocol: as §1
as §2, with “microscope. […]” for “microscope.”

COC(=O)C[C@H](NC(=O)[C@H](C)NC(=O)[C@@H](NC(=O)OCc1ccccc1)C(C)C)C(=O)CF [Z-VAD-FMK] (Cbz-Val-Ala-Asp(OMe)-CH2F)
condition of the cells after transfection observed under a fluorescence microscope [1]: significantly inhibit apoptosis
survival rate of cells (FIG. 4) ([2]; HEK-293T cells after transfection, in words): significantly improved

DASTKKLSECLRRIGDELDS
effect on apoptosis ([2]; Bax-BH3 polypeptide expressed by the recombinant vector transfected into HEK-293T cells): promoting apoptosis
